For assay [1], the system named is ER pathway. Kind of assay: Predicted ER pathway activity in wild type MCF7 cell line (GSE21618). The format is cell-based. The method, then:
(§1) The ER (pseudo-)linear model was trained using continuous expression data of GSE8597, the “most discriminative probesets” (underlined probesets in Table 2) and “log odds” weights (see training results in FIG. 10). Different stimulation regimes were applied, denoted in the different groups of samples, and the expression of mRNA was measured by microarray at 0, 1, 2, 3, 6, 12, 24, 48 hours, denoted by the consecutive samples in the groups.
(§2) The (pseudo-)linear model of the ER pathway, constructed using a node for the transcription factor presence and a layer of probesets (Table 2) associated with the target genes of the ER pathway, analogous to FIG. 2 as described herein, and trained as described herein, was used to calculate the ER pathway activity score.
(§3) With respect to FIG. 20, Tamoxifen is a drug currently used for the treatment of ER+ (estrogen receptor positive) breast cancer. It acts as a partial antagonist of the estrogen receptor inhibiting the uncontrolled cell proliferation which is thought to be induced by ER signaling. […] Many studies have been conducted to investigate this so-called Tamoxifen resistance. The publicly available GSE21618 data set is the result of one of such study and contains microarray data of Tamoxifen resistant and wildtype MCF7 cell lines under different treatment regimes. […]

For assay [2], the system named is ER pathway. Kind of assay: ER pathway activity score in MCF7 cells stimulated with or deprived of E2 (GSE11352). The assay is classed as cell-based. The following applies: MCF7, longer exposure times (12, 24, 48 hours) to ER stimulating agent. The source says: FIG. 12 ER pathway prediction in stimulation response data of MCF7 cells treated with ER stimulating agent (E2) or control for several treatment intervals (GSE11352, continuous data). The model is trained using continuous expression data of GSE8597, the “most discriminative probesets” (underlined probesets in Table 2) and “log odds” weights (see training results in FIG. 10).
In another example, a publically available data set of MCF7 cell lines stimulated with or deprived of ER stimulating agent (E2) with expression levels measured at 12 hours, 24 hours and 48 hours after starting stimulation or deprivation (GSE11352) was used to calculate the ER activity scores using the trained ER (pseudo-)linear model as described herein. […] With the exception of the starvation of 48 hours, the predicted ER activity scores nicely correlates with the knowledge that prolonged stimulation result in higher ER activity and vice versa. Inversely, this example implies that the ER activity score can be used to monitor efficacy or inefficacy of stimulation or inhibition of ER activity treatments.

The test system of assay [3] is ER pathway. Description: ER activity score validation in MCF7 breast cancer cell line (GSE9253). The assay is classed as cell-based. The following applies: MCF7 sample stimulated with E2, 3 hours. An excerpt: FIG. 17 ER validation results of a stimulation experiment with MCF7 cells (GSE9253, continuous data). The (pseudo-)linear model was trained using continuous expression data of GSE8597, the “most discriminative probesets” (underlined probesets in Table 2) and “log odds” weights (see training results in FIG. 10). It is clear from the MCF7 cells stimulated with E2, ER stimulating agent, that the defined threshold was set too high. The reason for this discrepancy could be a different stimulation regime (i.e. higher E2 concentration, but shorter stimulation time, etc.). Nevertheless, the difference of the calculated ER activity scores of the stimulated and non-stimulated cells is evident.
In FIG. 17 the validation results of the trained ER (pseudo-)linear model is shown for two microarrays measured using a MCF7 breast cancer cell line sample, one stimulated with estradiol (E2) the other one with a negative control (EtOH), originating from the GSE9253 data set. The difference in ER activity score is evident from FIG. 17. […] This is the result of the threshold defining either an active or passive state was set too high for this particular experiment. […]

The next assay has as its system AR pathway. The following applies: LNCaP stimulated with DHT for 4 hours, compared with 16 hours. An excerpt:
FIG. 13 AR training results using fuzzy transformed expression data of GSE7868, “all probesets” as mentioned in Table 4 and “black and white” weights. The 1st and 2nd group of samples (from the left) has been used as negative and positive training samples, respectively.
The expression data of these stimulation experiments are publically available in the GSE7868 dataset that has been fuzzy transformed as described herein. […] The 1st and 2nd group of samples from the left has been used as negative and positive training samples, respectively.

For assay [4], the system named is ER pathway. Description: Predicted ER pathway activity in Tamoxifen resistant MCF7 cell line (GSE21618). The format is cell-based. The following applies: Tamoxifen resistant cell line stimulated with E2 and treated with Tamoxifen (TamR.E2_Tam); 1, 2, 3, 6, 12, 24 and 48 h. As for the experimental part:
as §1, §2, §3

As for `C[C@]12CC[C@@H]3c4ccc(O)cc4CC[C@H]3[C@@H]1CC[C@@H]2O` [E2, 17beta-estradiol], the ER activity predictions entry in the assay on ER pathway [1] (wild type MCF7 treated with 17beta-estradiol (wt1.E2)) is reported as “increasing ER positive activity predictions”. Besides, the “ER pathway activity score” value with ER pathway [2] is “increase for longer exposure times”. For the same compound, the ER activity score result in the assay on ER pathway [3] is on record as “slightly negative ER activity score”.

Take `C[C@]12CCC(=O)C[C@@H]1CC[C@@H]1[C@@H]2CC[C@]2(C)[C@@H](O)CC[C@@H]12` [DHT, Dihydrotestosterone]: in the assay with AR pathway, the AR activity entry is on record as “demonstrates AR activity, albeit lower activity levels than the cells stimulated for 16 hours”.

As to `CC/C(=C(\c1ccccc1)c1ccc(OCCN(C)C)cc1)c1ccccc1` [Tamoxifen], the “predicted ER pathway activity” value in the assay with ER pathway [4] is given as “ineffective”. Moreover, in the assay on ER pathway [1] (wild type MCF7 stimulated with E2 and treated with Tamoxifen (wt2.E2_Tam)), the “ER pathway activity score in time” value was “decreasing ER pathway activity score in time”.
